Data from paper PMC8959960, “Inhibition of Aldose Reductase by Novel Phytocompounds: A Heuristic Approach to Treating Diabetic Retinopathy” (Evidence-based Complementary and Alternative Medicine : eCAM, 2022).

Legend:
ALR2 in ARPE-19 cells = target: T1, ALR2 in ARPE-19 cells (Homo sapiens, UniProt P15121); experiment: Inhibition of ALR2 in ARPE-19 cells; type: cell-based; details: normoglycemic (5 mM glucose) ARPE-19 cells, 24 hr, each compound at its human lens IC50 concentration
T1 construct: The cell lysate was collected for analysis; endogenous in cells; host or cells: ARPE-19
Protocol: The cells were shifted to DMEM-low glucose with 10% FBS, 12 hr before the experiment. The cells were washed with PBS and incubated in FBS-free medium and 5 mM/25 mM (normoglycemic condition/hyperglycemic condition) glucose, for 24 hr, with or without the drug. Following the drug treatment, the cells were washed with ice cold PBS, trypsinized, and counted. Cells were resuspended in ALR assay buffer, homogenized for 30 seconds, and centrifuged at 10000 rpm for 30 minutes. The cell lysate was collected for analysis.
ALR2 inhibition protocol by Hayman and Kinoshita was followed.

ARPE-19 cells = experiment: MTT cell toxicity assay; type: cell-based, human; details: 24 hr treatment
Protocol: The cell toxicity of the shortlisted ARIs was assessed using MTT assay kit (in vitro toxicological assay kit, Sigma, USA). ARPE-19 cells were grown to confluence in DMEM/F12 medium with 10% FBS, harvested by trypsinization, and plated at 1 × 10^4 cells per well in a 96-well plate. The medium was replaced with serum-free medium without FBS for 3 hr before the drug treatment. Following serum starvation, ARPE-19 cells were treated with different concentrations of the identified compounds. […] The cells were treated with the lead compounds for 24 hr to determine the cytotoxicity of the compounds. After incubation, the cells were treated with 20 μl of 5 mg/ml MTT and incubated for 3 hr at 37°C to determine the cell toxicity. The viable cells converted MTT into formazan crystals which were dissolved using solubilization solution (200 μl) and measured spectrophotometrically at 570 nm with subtraction of the reference wavelength, 650 nm, to eliminate the possibility of variations in the plate and the media present, using SpectraMax M3 multiplate reader (Molecular Devices, California, USA).

human lens ALR2 = target: T2, human lens ALR2 (Homo sapiens, UniProt P15121); experiment: ALR2 inhibition in human lens samples (NADPH decrease at 340 nm); type: biochemical; details: crude ALR2 from diabetic human lens, DL-glyceraldehyde substrate, 37°C, pH 7.0; means ± SD, n = 3
T2 construct: Crude ALR2 enzyme extract was prepared by homogenizing from 100 mg of diabetic and nondiabetic human lenses; from tissue; host or cells: human lens (Rotary Aravind International Eye Bank)
Protocol: Hayman and Kinoshita method of crude ALR2 enzyme preparation was followed. Five diabetic and nondiabetic human lenses, aged 58 to 65 years, were obtained from the Rotary Aravind International Eye Bank, Aravind Eye Hospital, Madurai. […] The nondiabetic human lens was used as the control. The lens homogenate was centrifuged at 10,000 rpm for 30 minutes, and the resulting crude ALR2 enzyme preparation was used for analysis.
The 300 μl reaction mixture consisted of 100 mM sodium phosphate buffer adjusted to pH 7.0, 0.2 mM Li2SO4, 5 mM 2-mercaptoethanol, 0.15 mM NADPH, and 100 μg crude enzyme preparation, and the substrate DL-glyceraldehyde was added to initiate the reaction. ALR2 activity was assayed spectrophotometrically by measuring the decrease in the absorption of NADPH at 340 nm per unit time at 37°C and pH 7.0.
The percentage inhibition of ALR2 was calculated using the following formula:(3) % inhibition=ΔAbsorbance of sample/min−ΔAbsorbance blank/min/ΔAbsorbance of control/min−ΔAbsorbance blank/min×100.

ALR2 = details: high glucose condition; cited from earlier work

SMILES	ALR2 inhibition (%) (ALR2 in ARPE-19 cells)	IC50 (human lens ALR2)	concentration below which no toxicity was shown (ARPE-19 cells)	ALR2 inhibition (ALR2)
COc1cc(C(=O)O[C@H]2[C@@H]3C=CO[C@@H](O[C@@H]4O[C@H](CO)[C@@H](O)[C@H](O)[C@H]4O)[C@@H]3[C@@]3(CO)O[C@@H]23)ccc1O [Picroside II]	71%	130 nM	–	–
CC(/C=C1\SC(=S)N(CC(=O)O)C1=O)=C\c1ccccc1 [Epalrestat, reference compound]	85%	–	below 5 μM	65%

Second part, led by results:

ALR2 inhibition (%) (ALR2 in ARPE-19 cells)	IC50 (human lens ALR2)	SMILES	concentration below which no toxicity was shown (ARPE-19 cells)	ALR2 inhibition (ALR2)
100%	22.4 nM	O=C(OCC1=C[C@@H](O)[C@@H]2C=CO[C@@H](O[C@@H]3O[C@H](CO)[C@@H](O)[C@H](O)[C@H]3O)[C@H]12)c1ccc(O)cc1 [Agnuside]	below 5 μM	–
98%	108 nM	COc1cc(O)c2c(=O)cc(-c3ccccc3)oc2c1OC [7-O-Methylwogonin]	–	–
65%	27.3 nM	COc1cc2oc(-c3ccc(O)cc3)c(O[C@@H]3O[C@H](CO)[C@H](O)[C@H](O)[C@H]3O)c(=O)c2c(O)c1OC [Eupalitin-3-O-galactoside]	–	–
